Experimental findings from US4515951A, “Preparation of 5,6,7,7a-tetrahydro-4H-thieno[3,2-c]pyridin-2-one compounds” (Sanofi, priority 1980, dated 1985) are described below.

Read-outs that look alike come from different tables or passages of the source.

The test system of data set [1] is platelet aggregation by collagen. In words: inhibiting action on platelet aggregation by collagen (COLLAGEN TEST), plasma of orally treated rats. It counts as in vivo, Wistar rats. The following applies: Rattus norvegicus, read-out: Percentage inhibition of platelet aggregation (collagen test). Here is the method:
(§1) A sample of blood is taken from the jugular vein of Wistar rats, which have previously been treated with the compound to be tested. From this blood, which is citrate-treated and centrifuged, there is reconstituted a plasma containing 600,000±20,000 platelets per mm^3, which is employed in all the aggregation measurements.
(§2) 0.4 ml. of plasma is treated in a siliconised tube provided with a bar magnet which is also siliconised. The tube is introduced into an aggregometer connected to an apparatus with which variations in optical density can be recorded. When the light transmission has reached a stable value, 0.5 ml. of a solution containing […] of ADP (adenosine diphosphate)is introduced into the tube.
(§3) Platelet aggregation then causes an increase in light transmission, followed by a reduction in light transmission due to the subsequent disaggregation stage.
(§4) The maximum variation in optical density thus determined relative to that of a plasma free of platelets characterises the intensity of aggregation.
(§5) The measurements are carried out during the 2 hours which follow the taking of the blood sample, this sample being taken 3 hours after treatment with the derivative to be tested.
The ADP solution is replaced by a solution of collagen (extracted from cattle tendons).
(§6) Groups of 20 rats were used. Each group received a single dose of the compound to be tested, administered orally, the same compound being administered at different doses ranging from 5 mg./kg. to 100 mg./kg.
(§7) The results obtained are given in the following Tables II and III, which show the percentage inhibition of platelet aggregation obtained relative to the control experiment, 3 hours after treatment with the compound to be tested.

The next data set in a line: in vivo. Particulars: mouse, iv. The text has this:
This study was concerned with the acute, chronic, sub-chronic and delayed toxicities.

Data set [2] deals with platelet aggregation by ADP. The data set can be described thus: inhibiting action on platelet aggregation by ADP (ADP TEST), plasma of orally treated rats. The class given is in vivo, Wistar rats. The following applies: Rattus norvegicus; for inhibition at 5 mg/kg / inhibition at 12.5 mg/kg / inhibition at 25 mg/kg / inhibition at 50 mg/kg / inhibition at 100 mg/kg: read-out: Percentage inhibition of platelet aggregation (ADP test). Here is the method: as §1, §2, §3, §4, §5, §6, §7

A further data set has as its system experimental thrombosis. The data set can be described thus: anti-thrombosis activity, experimental thrombosis caused by extracorporal circulation (Umetsu and Sonoi). It counts as in vivo, rats. The following applies: for Average weight of the thrombi: control (5% gum arabic) 30.41. Here is the method:
This activity was studied by the experimental thrombosis method caused by extracorporal circulation, described by Umetsu and Sonoi (Thrombos. Haemost., 39, […]).
The left jugular vein and the right external carotid are exposed in rats anaesthetised by an intraperitoneal injection of pentobarbital. A shunt is provided which consists of a central catheter and two lateral catheters. A natural white silk thread is introduced into the central part and the circulation is restarted for 20 minutes. After stopping the circulation by clamping, the thread is gently withdrawn and weighed immediately.
Treatment was carried out for 48 hours, 24 hours and 2 hours before the start of the blood circulation in shunt.
The test compounds were administered orally to different groups of animals in the form of a suspension in 10 ml. of 5% gum arabic/kg., the doses used being 12.5 mg./kg., 25 mg./kg., 50 mg./kg., 100 mg./kg. and 200 mg./kg.

The subject of data set [3] is platelet aggregation induced by ADP. In words: kinetic study of platelet aggregation induced by ADP (Born's nephelometric method, Bryston aggregometer), intraperitoneal. It counts as in vivo. Particulars: rats. As for the experimental part: A further experiment was carried out, relating to the kinetic study of the compounds of the present invention.
The blood sample is taken 10 minutes and 60 minutes after this administration and is centrifuged to obtain a plasma enriched in platelets.
The platelet aggregation in the plasma, induced by ADP is measured in a Bryston aggregometer, using Born's nephelometric method.

Setting [4] is: 12.5 mg/kg oral, 48, 24 and 2 hours before.
The mark [5] stands for this setting: 25 mg/kg oral, 48, 24 and 2 hours before.
Setting [6] is: 50 mg/kg oral, 48, 24 and 2 hours before.
[7] abbreviates: 100 mg/kg oral, 48, 24 and 2 hours before.
[8] abbreviates: 10 minutes after 100 mg/kg intraperitoneal in propylene glycol.
Setting [9] is: 60 minutes after 100 mg/kg intraperitoneal in propylene glycol.
[10] abbreviates: 5 mg/kg oral, single dose, 3 hours after treatment, relative to control.
The mark [11] stands for this setting: 12.5 mg/kg oral, single dose, 3 hours after treatment, relative to control.
The mark [12] stands for this setting: 25 mg/kg oral, single dose, 3 hours after treatment, relative to control.
Setting [13] is: 50 mg/kg oral, single dose, 3 hours after treatment, relative to control.
Where [14] appears, read: 100 mg/kg oral, single dose, 3 hours after treatment, relative to control.

Take `O=C1C=C2CN(Cc3ccccc3Cl)CCC2S1` (stereo not drawn) [Derivative 1, 5-(o-Chlorobenzyl)-5,6,7,7a-tetrahydro-4H-thieno-[3,2-c]pyridin-2-one]: the inhibition (commonly the relative decrease from the control value, in per cent) at 5 mg/kg was found to be 16.8% in data set [1] (po, 3 h) and 51% in data set [2] (po, 3 h). For the same molecule, the inhibition at 12.5 mg/kg is 46.8% in data set [1] (po, 3 h) and 83.6% in data set [2] (po, 3 h). The inhibition at 25 mg/kg in data set [1] (po, 3 h) was 86.7%; in data set [2] (po, 3 h), 83.7%. In addition, the inhibition at 50 mg/kg in data set [1] (po, 3 h) is 89.6%; in data set [2] (po, 3 h) it was 84%. Also, the inhibition at 100 mg/kg was found to be 89.8% in data set [1] (po, 3 h) and 84.1% in data set [2] (po, 3 h). The LD50 – broadly, the dose expected to kill half of the subjects tested – at 24 h in “in vivo” worked out at 113 mg/kg. The “Average weight of the thrombi” value in the data set with experimental thrombosis (setting [4]) is on record as 27.45 mg; in the data set on experimental thrombosis (setting [5]), 12.21 mg; in the data set with experimental thrombosis (setting [6]) it was 6.01 mg; in the data set on experimental thrombosis (setting [7]), 4.76 mg. Besides, the “percentage inhibition as a function of time (platelet aggregation, ADP)” value in data set [3] (setting [8]) worked out at 42%; in data set [3] (setting [9]), 97%.
Turning to `Clc1ccccc1CN1CCc2sccc2C1` [Reference compound A, 5-(2-chlorobenzyl)-4,5,6,7-tetrahydrothieno[3,2-c]pyridine, reference compound], the inhibition at 5 mg/kg in data set [1] (setting [10]) and in data set [2] (setting [10]) was 0% in each case. The inhibition at 12.5 mg/kg in data set [1] (setting [11]) and in data set [2] (setting [11]) was 0% each time. Moreover, the inhibition at 25 mg/kg was found to be 40.9% in data set [1] (setting [12]) and 0% in data set [2] (setting [12]). Also, the inhibition at 50 mg/kg in data set [1] (setting [13]) worked out at 46.8%; in data set [2] (setting [13]), 34.6%. In addition, the inhibition at 100 mg/kg came to 80.1% in data set [1] (setting [14]) and 63.2% in data set [2] (setting [14]). The minimal effective dose in data set [2] (3 h, oral, rats, stated for the aggregation tests (ADP and collagen), read-out: dose at which significant (or similar) platelet aggregation inhibiting activity manifests itself) came to 100 mg/kg. In addition, the “Average weight of the thrombi” value in the data set with experimental thrombosis (setting [4]) was found to be 30.45 mg; in the data set on experimental thrombosis (setting [5]), 30.09 mg; in the data set with experimental thrombosis (setting [6]), 28.86 mg; with experimental thrombosis (setting [7]), 23.04 mg; in the data set with experimental thrombosis (200 mg/kg oral, 48, 24 and 2 hours before), 23.13 mg. Besides, in the data set with experimental thrombosis (even at high doses), the anti-thrombosis action entry is on record as “no anti-thrombosis action whatsoever”. Also, the “percentage inhibition as a function of time (platelet aggregation, ADP)” value in data set [3] (setting [8]) amounted to 22%; in data set [3] (setting [9]) it was 39%.
